From patent US20110117038A1, “Dopa Oxidase Inhibitor, Skin-Lightening Agent and External Preparation for Skin” (Kao Corporation, priority 2009, published 2011)

Target: T1, dopa oxidase activity (tyrosinase) of human neonatal foreskin-derived melanocytes (Homo sapiens, UniProt P14679)
T1 construct: The cells were lysed for 3 hours at 4° C., and the dopa oxidase activity was measured; endogenous in cells; host or cells: human neonatal foreskin-derived melanocytes (primary), lysed with NP-40/SDS extraction buffer
T1 sequence (P14679 19-529): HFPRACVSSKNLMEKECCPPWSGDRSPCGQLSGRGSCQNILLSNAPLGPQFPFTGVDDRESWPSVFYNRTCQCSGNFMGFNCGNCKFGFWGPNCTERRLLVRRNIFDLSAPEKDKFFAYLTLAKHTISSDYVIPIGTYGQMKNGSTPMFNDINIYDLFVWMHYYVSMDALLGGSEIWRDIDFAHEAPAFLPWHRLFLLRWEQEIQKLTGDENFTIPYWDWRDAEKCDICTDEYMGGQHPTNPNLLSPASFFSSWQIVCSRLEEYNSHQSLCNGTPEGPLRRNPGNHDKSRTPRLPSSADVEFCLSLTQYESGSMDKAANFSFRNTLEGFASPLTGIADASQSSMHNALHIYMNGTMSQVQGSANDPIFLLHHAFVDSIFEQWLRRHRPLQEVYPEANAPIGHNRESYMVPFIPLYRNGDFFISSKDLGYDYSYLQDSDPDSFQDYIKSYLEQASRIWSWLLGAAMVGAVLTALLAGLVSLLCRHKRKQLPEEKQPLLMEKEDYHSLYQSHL
Assay: Measurement of dopa oxidase activity (MBTH method) in lysate of treated melanocytes
Type: cell-based
Settings: read-out: Dopa oxidase activity (%)
Experimental: 100 μL of human neonatal foreskin-derived melanocytes were inoculated on each well of a 96-well plate to be a cell density of 1×10^4 cells/well. The medium used therein was Medium 254 to which HMGS (Human Melanocyte Growth Supplement) excluding PMA (all manufactured by Cascade Biologics Inc.) was added.
After culturing the cells for 24 hours, endothelin-1 (ET-1) which is a melanocyte activator, stem cell growth factor (SCF), α-melanocyte stimulating hormone (α-MSH), histamine and prostaglandin E2 (PGE2) were mixed and added to the each culture at a final concentration in medium of 10×10^−7 mol/m^3 in each. […]
The melanocytes which had been used in the measurement of the cell proliferation activity were washed with Phosphate-buffered saline (PBS) from which Ca^2+ and Mg^2+ had been eliminated, and 20 μL/well of an extraction buffer (0.1 M Tris-HCl (pH 7.2), 1% Nonidet P-40, 0.01% SDS, 100 μM phenylmethylsulfonyl fluoride (PMSF) and 1 μg/ml aprotinin) and 20 μL/well of an assay buffer (100 mM Sodium phosphate-buffer (pH 7.1) containing 4% dimethylformamide) were added to the cells. The cells were lysed for 3 hours at 4° C., and its dopa oxidase activity was measured. […]
Further, the values of the dopa oxidase activity are indicated as values relative to the absorbances of the instances where various plant extracts were not added. […]

SMILES: CC(=O)O[C@@H]1C[C@H](O)[C@@]23CO[C@@H](O)[C@]1(C)[C@@H]2C[C@@H](O)[C@]1(C)[C@@H]3C(=O)[C@H](OC(C)=O)[C@@]2(C)[C@H](c3ccoc3)C[C@H]3O[C@]321 [Toosendanin]
- activity at 0.1 µM: 15%
